Values quoted from earlier work, collected in patent publication US20240192198A1, “BIOMIMETIC LIPOSOMES AND METHODS OF MAKING AND USING THE SAME” (Worcester Polytechnic Institute, priority 2022, published 2024).

Conditions: hydrophobicity; obtained from the National Library of Medicine, PubChem Database

logP: −2.5
Compound: Nc1nc2ncc(CNc3ccc(C(=O)N[C@@H](CCC(=O)O)C(=O)O)cc3)nc2c(=O)[nH]1 [Folic acid]
